According to patent US12630529B2, “GCN2 modulator compounds” (ALESTA THERAPEUTICS BV, priority 2020, dated 2026):

The molecules below were run against T1, GCN2 (Mus musculus, UniProt Q9QZ05) (assay: GCN2 inhibition cell-based assay (P-GCN2 Western blot in Neuro 2a cells)). Conditions: amino acid deprived media (DMEM lacking L-cysteine and methionine), 3 hours.
T1 construct: endogenous in cells; host or cells: Neuro 2a (N2a)
Experimental: Neuro 2a cells (N2a) were maintained at 37° C. and 5% CO2 in DMEM/F12 medium (Fisher Scientific) supplemented with 10% fetal bovine serum and 1% penicillin-streptomycin (complete medium). 300,000 cells/well were seeded in flat bottom 6 well plates 48 hours before treatment with the compounds.
Testing compounds were prepared at different concentrations ranging from 10 μM to 0.1 nM on DMEM medium lacking L-cysteine and methionine (DMEM-CM) (Gibco) and supplemented with 1% penicillin-streptomycin. Complete medium was used as control of non-stressed condition. After 48 hours, the medium was removed from each well and 2 mL per well of each treatment was added. Cells were treated for 3 hours at 37° C. and 5% CO2.
After the incubation time, each well was washed with sterile 1×PBS and then 100 μL of ice-cold lysis buffer supplemented with phosphatase and protease inhibitors was added. Lysates were transferred to 1.5 mL tubes and sonicated for 3 min, and total protein amounts were quantified using BCA assay (e.g., BCA Protein Assay Kit; Pierce) according to manufacturer instructions. Equal amount of proteins was loaded on SDS-PAGE gels for electrophoresis and then transferred onto 0.2 µm filter pore PVDF membranes.
Membranes were then blocked in blocking buffer containing 3% BSA/0.1% Tween/1×Tris-buffered saline (TBS) for 1 hour and then incubated overnight at 4° C. with agitation with anti-pGCN2 primary antibody (Abcam ab-75836), diluted 1:1,000 in blocking buffer. […] (Sigma Aldrich) was used as a loading control.
Membranes were then incubated with the corresponding secondary antibody to detect immune-reactive bands using enhanced chemiluminescence (e.g., ECL Western Blotting Substrate Pierce).
Images were acquired (e.g., using Chemidoc™ equipment) and quantitated by densitometry using ImageJ software. IC50 values were determined from a concentration-response curve using GraphPad prism software.
IC50 values from P-GCN2 inhibition assay after induction with amino acid deprived media in the presence of different concentrations of test compounds are shown in Table 2. For IC50 values: +++ refers to <10 nM of test compound; ++ refers to 10 nM to 100 nM of test compound; + refers to 100 nM to 1,000 nM of test compound and − refers to >1,000 nM of test compound.
Under GCN2-mediated stress conditions, resulting from an amino acid deprived medium, GCN2 is generally phosphorylated. Accordingly, inhibition of GCN2 phosphorylation as a result of the test compound indicates inhibition of the GCN2 pathway.

T1 sequence (Q9QZ05 whole entry): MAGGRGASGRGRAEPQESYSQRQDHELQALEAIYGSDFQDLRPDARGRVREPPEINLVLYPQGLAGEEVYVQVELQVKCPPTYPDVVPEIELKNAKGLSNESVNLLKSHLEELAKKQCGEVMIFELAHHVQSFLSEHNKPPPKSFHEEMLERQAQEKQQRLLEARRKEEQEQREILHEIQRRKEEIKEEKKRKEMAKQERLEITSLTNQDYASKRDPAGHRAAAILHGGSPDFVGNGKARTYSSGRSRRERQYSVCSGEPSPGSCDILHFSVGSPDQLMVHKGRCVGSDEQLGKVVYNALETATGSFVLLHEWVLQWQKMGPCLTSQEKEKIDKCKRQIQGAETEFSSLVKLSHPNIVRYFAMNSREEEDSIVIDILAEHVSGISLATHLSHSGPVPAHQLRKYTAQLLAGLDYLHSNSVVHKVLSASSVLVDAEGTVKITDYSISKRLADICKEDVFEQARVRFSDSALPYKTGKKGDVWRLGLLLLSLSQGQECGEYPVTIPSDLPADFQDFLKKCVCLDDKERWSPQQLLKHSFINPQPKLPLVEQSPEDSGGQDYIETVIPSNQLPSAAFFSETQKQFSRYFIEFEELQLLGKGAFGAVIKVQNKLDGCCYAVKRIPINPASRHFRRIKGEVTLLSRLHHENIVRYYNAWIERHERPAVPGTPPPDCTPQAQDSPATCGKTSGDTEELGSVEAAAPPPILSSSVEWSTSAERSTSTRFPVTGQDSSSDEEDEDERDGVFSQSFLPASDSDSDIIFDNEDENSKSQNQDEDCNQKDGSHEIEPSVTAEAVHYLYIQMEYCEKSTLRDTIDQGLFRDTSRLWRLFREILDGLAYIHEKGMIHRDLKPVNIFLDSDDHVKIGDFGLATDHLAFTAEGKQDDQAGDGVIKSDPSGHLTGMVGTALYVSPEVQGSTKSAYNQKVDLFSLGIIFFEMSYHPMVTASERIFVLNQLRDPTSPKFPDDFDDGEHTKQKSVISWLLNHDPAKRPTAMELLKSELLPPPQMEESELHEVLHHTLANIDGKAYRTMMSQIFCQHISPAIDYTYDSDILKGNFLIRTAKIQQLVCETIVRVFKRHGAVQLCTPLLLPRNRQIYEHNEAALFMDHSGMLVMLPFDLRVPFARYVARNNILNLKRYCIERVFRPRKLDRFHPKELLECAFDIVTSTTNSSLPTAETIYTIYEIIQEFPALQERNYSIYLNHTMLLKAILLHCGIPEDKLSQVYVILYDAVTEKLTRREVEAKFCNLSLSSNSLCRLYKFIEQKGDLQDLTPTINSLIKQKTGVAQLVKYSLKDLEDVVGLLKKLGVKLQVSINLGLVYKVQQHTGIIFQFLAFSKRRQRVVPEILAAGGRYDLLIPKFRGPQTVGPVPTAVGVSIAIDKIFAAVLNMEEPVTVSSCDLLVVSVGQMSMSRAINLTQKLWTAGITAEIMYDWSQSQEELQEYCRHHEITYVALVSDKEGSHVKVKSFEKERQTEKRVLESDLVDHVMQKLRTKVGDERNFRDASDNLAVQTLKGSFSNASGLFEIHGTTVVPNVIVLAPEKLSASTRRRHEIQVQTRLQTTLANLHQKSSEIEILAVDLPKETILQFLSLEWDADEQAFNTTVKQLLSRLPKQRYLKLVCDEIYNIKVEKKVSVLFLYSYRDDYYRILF

| IC50 | SMILES |
| --- | --- |
| > 1000 nM | Nc1ccc2cc(-c3c(F)ccc(NS(=O)(=O)c4cc(Cl)ccc4Cl)c3F)ccc2n1 [Compound 107] |
| 10 to 100 nM | Cc1cc(S(=O)(=O)Nc2ccc(F)c(-c3ccc4nc(N)ncc4c3)c2F)c(C)cc1Cl [Compound 109] |
| > 1000 nM | COc1ccc(F)cc1S(=O)(=O)Nc1ccc(F)c(-c2ccc3nc(N)ncc3c2)c1F [Compound 110] |
| > 1000 nM | Nc1ncc2c(-c3c(F)ccc(NS(=O)(=O)c4cc(Cl)ccc4Cl)c3F)cccc2n1 [Compound 111] |
| > 1000 nM | Nc1ncc2cc(-c3c(F)ccc(NS(=O)(=O)c4cc(F)cc(F)c4)c3F)ccc2n1 [Compound 112] |
| < 10 nM | Cc1cc(C)cc(S(=O)(=O)Nc2ccc(F)c(-c3ccc4nc(N)ncc4c3)c2F)c1 [Compound 113] |
| 10 to 100 nM | COc1ccc(S(=O)(=O)Nc2ccc(F)c(-c3ccc4nc(N)ncc4c3)c2F)cc1OC [Compound 115] |
| > 1000 nM | Nc1ncc2cc(-c3c(F)ccc(NS(=O)(=O)c4cccc(F)c4)c3F)ccc2n1 [Compound 116] |
| > 1000 nM | COc1ccc(S(=O)(=O)Nc2ccc(F)c(-c3ccc4nc(N)ncc4c3)c2F)cc1C [Compound 117] |
| 10 to 100 nM | COc1ccc(C)cc1S(=O)(=O)Nc1ccc(F)c(-c2ccc3nc(N)ncc3c2)c1F [Compound 118] |
| > 1000 nM | COc1ccc(OC)c(S(=O)(=O)Nc2ccc(F)c(-c3ccc4nc(N)ncc4c3)c2F)c1 [Compound 119] |
| > 1000 nM | CCc1ccc(OC)c(S(=O)(=O)Nc2ccc(F)c(-c3ccc4nc(N)ncc4c3)c2F)c1 [Compound 120] |
| < 10 nM | Nc1ncc2cc(-c3c(F)ccc(NS(=O)(=O)c4cc(C(F)(F)F)ccc4C(F)(F)F)c3F)ccc2n1 [Compound 121] |
| 100 to 1000 nM | Nc1ncc2cc(-c3c(F)ccc(NS(=O)(=O)c4ccc5occc5c4)c3F)ccc2n1 [Compound 122] |
| > 1000 nM | Nc1ncc2cc(-c3c(F)ccc(NS(=O)(=O)c4cc(F)cc(C(F)(F)F)c4)c3F)ccc2n1 [Compound 123] |
| > 1000 nM | Nc1ncc2cc(-c3c(F)ccc(NS(=O)(=O)c4cccc(F)c4F)c3F)ccc2n1 [Compound 124] |
| > 1000 nM | Cc1cccc(S(=O)(=O)Nc2ccc(F)c(-c3ccc4nc(N)ncc4c3)c2F)c1 [Compound 125] |
| < 10 nM | O=S(=O)(Nc1ncc(F)c(-c2ccc3nc(NCCO)ncc3c2)c1F)c1cc(Cl)ccc1Cl [Compound 128] |
| < 10 nM | COc1ncc(Cl)cc1S(=O)(=O)Nc1ccc(F)c(-c2ccc3nc(N[C@H]4CC[C@@H](O)CC4)ncc3c2)c1F [Compound 129] |

| IC50 | SMILES |
| --- | --- |
| > 1000 nM | Nc1ncc2cc(-c3c(F)ccc(NS(=O)(=O)c4cccnc4)c3F)ccc2n1 [Compound 130] |
| 10 to 100 nM | COc1ncc(Cl)cc1S(=O)(=O)Nc1ccc(Cl)c(-c2ccc3nc(N)ncc3c2)c1Cl [Compound 131] |
| > 1000 nM | Nc1ncc2cc(-c3c(F)ccc(NS(=O)(=O)c4ccc(F)c(F)c4)c3F)ccc2n1 [Compound 132] |
| 10 to 100 nM | Cc1ccc(F)cc1S(=O)(=O)Nc1ccc(F)c(-c2ccc3nc(N)ncc3c2)c1F [Compound 133] |
| < 10 nM | O=S(=O)(Nc1ccc(F)c(-c2ccc3nc(NCCO)ncc3c2)c1F)c1cc(Cl)cc(CO)c1Cl [Compound 134] |
| 100 to 1000 nM | Nc1ncc2cc(-c3c(F)ccc(NS(=O)(=O)c4cc(C(F)(F)F)ccc4F)c3F)ccc2n1 [Compound 135] |
| 100 to 1000 nM | Nc1ncc2cc(-c3c(F)ccc(NS(=O)(=O)c4ccc(F)c(C(F)(F)F)c4)c3F)ccc2n1 [Compound 136] |
| 10 to 100 nM | Nc1ncc2cc(-c3c(F)ccc(NS(=O)(=O)c4ccc(Cl)cc4C(F)(F)F)c3F)ccc2n1 [Compound 137] |
| > 1000 nM | Nc1ncc2cc(-c3c(F)ccc(NS(=O)(=O)c4ccc(F)c(C(F)(F)F)c4)c3F)ccc2n1 [Compound 138] |
| 100 to 1000 nM | Nc1ncc2cc(-c3c(F)ccc(NS(=O)(=O)c4cccc(OC(F)(F)F)c4)c3F)ccc2n1 [Compound 139] |
| > 1000 nM | Nc1ncc2cc(-c3c(F)ccc(NS(=O)(=O)c4ccsc4)c3F)ccc2n1 [Compound 140] |
| > 1000 nM | CC(C)c1cccc(S(=O)(=O)Nc2ccc(F)c(-c3ccc4nc(N)ncc4c3)c2F)c1 [Compound 141] |
| > 1000 nM | Nc1ncc2cc(-c3c(F)ccc(NS(=O)(=O)c4cccs4)c3F)ccc2n1 [Compound 142] |
| 100 to 1000 nM | COc1cc(S(=O)(=O)Nc2ccc(F)c(-c3ccc4nc(N)ncc4c3)c2F)ccc1F [Compound 143] |
| 10 to 100 nM | Nc1ncc2cc(-c3c(F)ccc(NS(=O)(=O)c4cc(C(F)(F)F)cc(C(F)(F)F)c4)c3F)ccc2n1 [Compound 144] |
| > 1000 nM | Nc1ncc2cc(-c3c(F)ccc(NS(=O)(=O)c4cccc(C(F)(F)F)c4)c3F)ccc2n1 [Compound 145] |
| 100 to 1000 nM | Nc1ncc2cc(-c3c(F)ccc(NS(=O)(=O)c4ccc(Cl)c(F)c4)c3F)ccc2n1 [Compound 146] |
| 100 to 1000 nM | Cc1ccc(S(=O)(=O)Nc2ccc(F)c(-c3ccc4nc(N)ncc4c3)c2F)cc1Cl [Compound 147] |
| 100 to 1000 nM | COc1ccc(S(=O)(=O)Nc2ccc(F)c(-c3ccc4nc(N)ncc4c3)c2F)cc1Cl [Compound 148] |

| IC50 | SMILES |
| --- | --- |
| 100 to 1000 nM | Nc1ncc2cc(-c3c(F)ccc(NS(=O)(=O)c4ccc(Cl)c(C(F)(F)F)c4)c3F)ccc2n1 [Compound 149] |
| 10 to 100 nM | Nc1ncc2cc(-c3c(F)ccc(NS(=O)(=O)c4cc(Cl)c(Cl)cc4Cl)c3F)ccc2n1 [Compound 150] |
| 10 to 100 nM | COc1ncc(Cl)cc1S(=O)(=O)Nc1ccc(F)c(-c2ccc3nc(NC(CO)CO)ncc3c2)c1F [Compound 153] |
| 100 to 1000 nM | COc1ncc(Cl)cc1S(=O)(=O)Nc1ccc(F)c(-c2ccc3nc(N[C@@H](CO)c4ccccc4)ncc3c2)c1F [Compound 154] |
| 100 to 1000 nM | COc1ncc(Cl)cc1S(=O)(=O)Nc1ccc(F)c(-c2ccc3nc(N(C)C)ncc3c2)c1F [Compound 155] |
| 10 to 100 nM | COc1ncc(Cl)cc1S(=O)(=O)Nc1ccc(F)c(-c2ccc3nc(N4CCCCC4)ncc3c2)c1F [Compound 156] |
| < 10 nM | COc1ncc(Cl)cc1S(=O)(=O)Nc1ccc(F)c(-c2ccc3nc(N[C@@H](C)CO)ncc3c2)c1F [Compound 157] |
| 100 to 1000 nM | Nc1ncc2cc(-c3c(F)ccc(NS(=O)(=O)c4ccc(F)c(Cl)c4)c3F)ccc2n1 [Compound 158] |
| 10 to 100 nM | Cc1ccc(S(=O)(=O)Nc2ccc(F)c(-c3ccc4nc(N)ncc4c3)c2F)cc1F [Compound 159] |
| > 1000 nM | Cc1cc(S(=O)(=O)Nc2ccc(F)c(-c3ccc4nc(N)ncc4c3)c2F)ccc1F [Compound 160] |
| > 1000 nM | Nc1ncc2cc(-c3c(F)ccc(NS(=O)(=O)c4ccc5c(c4)CCC5)c3F)ccc2n1 [Compound 161] |
| 10 to 100 nM | CNc1ncc2cc(-c3c(F)ccc(NS(=O)(=O)c4cc(Cl)cc(CO)c4Cl)c3F)ccc2n1 [Compound 162] |
| 100 to 1000 nM | COc1ncc(Cl)cc1S(=O)(=O)Nc1ccc(F)c(-c2ccc3nc(N[C@H](CO)c4ccccc4)ncc3c2)c1F [Compound 163] |
| < 10 nM | O=S(=O)(Nc1ccc(F)c(-c2ccc3nc(N[C@H]4CC[C@H](O)CC4)ncc3c2)c1F)c1cc(Cl)ccc1C(F)(F)F [Compound 164] |
| 10 to 100 nM | O=S(=O)(Nc1ccc(F)c(-c2ccc3nc(N[C@H]4CC[C@@H](O)CC4)ncc3c2)c1F)c1cc(Cl)ccc1C(F)(F)F [Compound 165] |
| 100 to 1000 nM | O=S(=O)(Nc1ccc(F)c(-c2ccc3nc(N[C@H](CO)c4ccccc4)ncc3c2)c1F)c1cc(Cl)ccc1C(F)(F)F [Compound 166] |
| 100 to 1000 nM | O=S(=O)(Nc1ccc(F)c(-c2ccc3nc(N[C@@H](CO)c4ccccc4)ncc3c2)c1F)c1cc(Cl)ccc1C(F)(F)F [Compound 167] |
| < 10 nM | O=S(=O)(Nc1ccc(F)c(-c2ccc3nc(NC4CCOC4)ncc3c2)c1F)c1cc(Cl)ccc1Cl (centres unmarked) [Compound 168] |
